Assay results reported in US20260315434A1, “USE OF GUAIACOL SESQUITERPENE LACTONE DERIVATIVES” (NANJING UNIVERSITY OF CHINESE MEDICINE, priority 2023, published 2026).

Tests used:
[1] = tested on: T cells / MDSCs; experiment: Promotion of T cell proliferation in a co-culture model of MDSCs and T cells; assay type: cell-based, mouse; conditions: for activation at 1 µM: Mus musculus, T-cell, 12 h, read-out: T-cell proliferation rate (%), 1 μM, MDSCs treated 12 hours, co-culture of MDSCs and T cells, compared to the control group
Protocol: Under sterile conditions, the tibia was removed, both ends of the bone were cut, and bone marrow was repeatedly flushed into a 15 mL centrifuge tube using a 1 mL syringe filled with culture medium. Centrifuge at 1600 rpm for 5 min to collect bone marrow cells. […] The spleen cell suspension was then transferred into a 15 mL centrifuge tube. Centrifuge at 1600 rpm for 5 min to collect T cells. Wash twice with 1×PBS. Resuspend the centrifuged T cells in 1 mL PBS and add 1 mL of 10 μM CFDA-SE solution. Incubate at room temperature for 8 min. […] After drug administration, collect MDSC cells into centrifuge tubes. Centrifuge at 1600 rpm for 5 min, remove supernatant, resuspend in 1 mL fresh medium, and plate. Add 1 mL stimulated activated T cells (1:1 ratio) for 48 h co-culture. After incubation, collect cells into centrifuge tubes, wash twice with PBS, and incubate with Fc antibody at room temperature in the dark for 10 min. Add CD3-labeled flow cytometry antibody and incubate at 4° C. in the dark for 30 min. After incubation, wash cells with PBS, resuspend in 300 μL PBS, and analyze by flow cytometry.

[2] = Conversion (release) of prodrug salts to parent compound in mouse plasma; assay type: in vitro ADME; conditions: 37 °C; for metabolised at 1 h / metabolised at 2 h / metabolised at 4 h / metabolised at 8 h / metabolised at 12 h: mouse, plasma, read-out: Release rate (conversion to Compound 1)
Protocol: (§1) Pharmaceutically acceptable salts of guaiane-type sesquiterpene lactone derivatives were selected and evaluated for their conversion rates to Compound 1 and Compound 83 in plasma and HEPES buffer, with results shown in Tables 2-1, 2-2, 3-1, and 3-2.
Plasma Preparation: Collect mouse plasma into an EP tube pre-loaded with sodium heparin, centrifuge at 8000 rpm for 10 minutes at 4° C., and then collect the supernatant.
(§2) Sample Analysis: Dissolve 0.6 mg of the compound in 250 μL of deionized water separately. Add 250 μL of mouse serum or HEPES 7.4 solution to the sample, incubate at a constant temperature of 37° C., and collect samples at different time points. Pipette 20 μL of the sample to an EP tube, add 60 μL of methanol, vortex to mix thoroughly, and centrifuge at 12,000 rpm at 4° C. for 10 min. At 1 h, 2 h, 4 h, 8 h, and 12 h respectively, collect the supernatant for HPLC analysis. Inject 10 μL of sample and record the corresponding peak areas. Chromatographic conditions: Hanbang C18 column (4.6×250 mm, 5 μm); mobile phase: acetonitrile: […] ammonium formate solution=60:40; flow rate 1.0 mL/min; detection wavelength 210 nm; column temperature 30° C.

[3] = Conversion (release) of prodrug salts to parent compound in HEPES buffer pH 7.4; assay type: in vitro ADME; conditions: for degraded at 1 h / degraded at 2 h / degraded at 4 h / degraded at 8 h / degraded at 12 h: hepes buffer, pH 7.4, HEPES pH 7.4, 37 °C, read-out: Release rate (conversion to Compound 1); for Release rate (conversion to Compound 1): HEPES pH 7.4, 37 °C
Protocol: as §1
Experimental Method: Preparation of HEPES 7.4 Solution: Dissolve 1.6 g NaCl, 0.074 g KCl, 0.027 g Na2HPO4, 0.2 g glucose, and 1 g 4-(2-Hydroxyethyl)piperazine-1-ethanesulfonic acid (HEPES) solution in 90 mL distilled water. Adjust the pH to 7.4 using 0.5 M NaOH, then dilute to a final volume 100 mL with distilled water.
as §2

Structure (SMILES)	activation at 1 µM [1] [%]	metabolised at 1 h ([2]; 1 h) [%]	metabolised at 2 h ([2]; 2 h) [%]	metabolised at 4 h ([2]; 4 h) [%]	metabolised at 8 h ([2]; 8 h) [%]	metabolised at 12 h ([2]; 12 h) [%]	degraded at 2 h ([3]; 2 h) [%]	degraded at 4 h ([3]; 4 h) [%]	degraded at 8 h ([3]; 8 h) [%]	degraded at 12 h ([3]; 12 h) [%]	also measured
C[C@@]12CC[C@@H]3[C@H](OC(=O)[C@H]3CN3CCNCC3)[C@@H]3[C@]1(CC[C@@]3(C)O)C2 [Compound 7]	0 to 20										
C[C@@]12CC[C@@H]3[C@H](OC(=O)[C@H]3CN3CCCC3)[C@@H]3[C@]1(CC[C@@]3(C)O)C2 [Compound 22]		7.4	16.8	27.6	46.3	57.7	14.8	26.6	41.3	53.7	degraded at 1 h ([3]; 1 h): 6.4%
C[C@@]12CC[C@@H]3[C@H](OC(=O)[C@H]3CN3CCNCC3)[C@@H]3[C@]1(CC[C@@]3(C)O)C2 [Compound 26]		7.8	17.1	29.3	48.5	65.6	16.1	27.3	43.5	55.6	degraded at 1 h ([3]; 1 h): 6.8%
CCN1CCN(C[C@@H]2C(=O)O[C@H]3[C@H]2CC[C@@]2(C)C[C@]24CC[C@@](C)(O)[C@H]34)CC1 [Compound 27]		7.9	17.4	28.4	48.2	59.1	15.4	27.4	42.2	54.8	degraded at 1 h ([3]; 1 h): 6.9%
CCN(CC)C[C@@H]1C(=O)O[C@H]2[C@H]1CC[C@@]1(C)C[C@]13CC[C@@](C)(O)[C@H]23 [Compound 28]		6.8	14.5	24.4	40.4	49.1	14.5	24.4	40.4	50	degraded at 1 h ([3]; 1 h): 6.8%
CN(C)C[C@@H]1C(=O)O[C@H]2[C@H]1CC[C@@]1(C)C[C@]13CC[C@@](C)(O)[C@H]23 [Compound 39]		6.6	14	26.2	43.6	52.8	15	26.8	42.7	54.3	Release rate (conversion to Compound 1) ([3]; 1 h, 60 min): 6.6%
CN(C)C[C@@H]1C(=O)O[C@H]2[C@H]1CC[C@@]1(C)C[C@]13CC[C@@](C)(O)[C@H]23 [Compound 40]											Release rate (conversion to Compound 1) ([2]; 1 h, 60 min): 6.7%; Release rate (conversion to Compound 1) ([2]; 2 h, 120 min): 14.2%; Release rate (conversion to Compound 1) ([2]; 4 h, 240 min): 26.8%; Release rate (conversion to Compound 1) ([2]; 8 h, 480 min): 44.0%; Release rate (conversion to Compound 1) ([2]; 12 h, 720 min): 52.6%; Release rate (conversion to Compound 1) ([3]; 1 h, 60 min): 6.8%; Release rate (conversion to Compound 1) ([3]; 2 h, 120 min): 14.6%; Release rate (conversion to Compound 1) ([3]; 4 h, 240 min): 26.2%; Release rate (conversion to Compound 1) ([3]; 8 h, 480 min): 44.0%; Release rate (conversion to Compound 1) ([3]; 12 h, 720 min): 50.2%
CN(C)C[C@@H]1C(=O)O[C@H]2[C@H]1CC[C@@]1(C)C[C@]13CC[C@@](C)(O)[C@H]23 [Compound 41]											Release rate (conversion to Compound 1) ([2]; 1 h, 60 min): 7.8%; Release rate (conversion to Compound 1) ([2]; 2 h, 120 min): 17.2%; Release rate (conversion to Compound 1) ([2]; 4 h, 240 min): 28.0%; Release rate (conversion to Compound 1) ([2]; 8 h, 480 min): 46.1%; Release rate (conversion to Compound 1) ([2]; 12 h, 720 min): 54.8%; Release rate (conversion to Compound 1) ([3]; 1 h, 60 min): 7.0%; Release rate (conversion to Compound 1) ([3]; 2 h, 120 min): 16.2%; Release rate (conversion to Compound 1) ([3]; 4 h, 240 min): 27.3%; Release rate (conversion to Compound 1) ([3]; 8 h, 480 min): 43.4%; Release rate (conversion to Compound 1) ([3]; 12 h, 720 min): 53.2%
CN(C)C[C@@H]1C(=O)O[C@H]2[C@H]1CC[C@@]1(C)C[C@]13CC[C@@](C)(O)[C@H]23 [Compound 42]											Release rate (conversion to Compound 1) ([2]; 1 h, 60 min): 6.3%; Release rate (conversion to Compound 1) ([2]; 2 h, 120 min): 14.2%; Release rate (conversion to Compound 1) ([2]; 4 h, 240 min): 26.2%; Release rate (conversion to Compound 1) ([2]; 8 h, 480 min): 41.0%; Release rate (conversion to Compound 1) ([2]; 12 h, 720 min): 47.2%; Release rate (conversion to Compound 1) ([3]; 1 h, 60 min): 7.0%; Release rate (conversion to Compound 1) ([3]; 2 h, 120 min): 15.0%; Release rate (conversion to Compound 1) ([3]; 4 h, 240 min): 25.2%; Release rate (conversion to Compound 1) ([3]; 8 h, 480 min): 42.8%; Release rate (conversion to Compound 1) ([3]; 12 h, 720 min): 52.3%
CC1CCN(C[C@@H]2C(=O)O[C@H]3[C@H]2CC[C@@]2(C)C[C@]24CC[C@@](C)(O)[C@H]34)CC1 [Compound 43]											T-cell proliferation rate (%) ([1]; 1 μM, MDSCs treated 12 hours, co-culture of MDSCs and T cells, compared to the control group): + (T-cell proliferation rate within the 0-20% range compared to the control group)
CC(C)(C)OC(=O)N1CCN(C[C@@H]2C(=O)O[C@H]3[C@H]2CC[C@@]2(C)C[C@]24CC[C@@](C)(O)[C@H]34)CC1 [Compound 44]	0 to 20										
CN(C)C[C@@H]1C(=O)O[C@H]2[C@H]1CC[C@@]1(C)C[C@]13C[C@@H](O)[C@@](C)(O)[C@H]23 [Compound 60]	0 to 20										
CC1=C2[C@H]3OC(=O)[C@@H](CN(C)C)[C@@H]3CC[C@@]3(C)C[C@@]23CC1 [Compound 62]	0 to 20										
CCC(=O)O[C@]1(C)CC[C@@]23C[C@]2(C)CC[C@@H]2[C@H](CC(=O)[C@H]2CN(C)C)[C@H]31 [Compound 63]	0 to 20										
